The target of the assay is DNA-PK (Homo sapiens (Human), UniProt P78527). Kind of assay: DNA-PK/Biochemical Assay (FlashPlate kinase assay). To be noted: 5 μM ATP, 90 min, room temperature. As to the method: The kinase assay was carried out in streptavidin-coated […] microtitre FlashPlates®. To this end, 1.5 μg of the DNA-PK/protein complex and 100 ng of biotinylated substrate, such as, for example, […] biotin-NH2 (“biotin-DNA-PK peptide”), in a total volume of 36.5 μl (34.25 mM HEPES/KOH, 7.85 mM Tris-HCl, 68.5 mM KCl, 5 μM ATP, 6.85 mM MgCl2, 0.5 mM EDTA, 0.14 mM EGTA, 0.69 mM DTT, pH 7.4), were incubated at room temperature for 90 min with 500 ng of DNA from calf thymus, 0.1 μCi of 33P-ATP and 1.8% of DMSO per well with or without the test compound. The reaction was stopped using 50 μl/well of 200 mM EDTA. After incubation for a further 30 min at room temperature, the liquid was removed. Each well was washed three times with 100 μl of 0.9% sodium chloride solution. A non-specific reaction (blank value) was determined using 10 μM of a proprietary kinase inhibitor. The radioactivity measurement was carried out by means of a TopCount. IC50 values were calculated in RS1. • Literature: Kashishian et al. (2003) Molecular Cancer Therapeutics 1257.

Molecules are shown by their SMILES. Counter-ions that a name gives are not always drawn.

Experimental findings from US8802712B2, “Pyrazoloquinolines” (Merck Patent GmbH, priority 2010, dated 2014) are described below.

A word on the IC50: it is the concentration at which inhibition is half-maximal.

In turn, `COc1cc2ncc3c(c(-c4ccc(C#N)cc4)nn3C)c2cc1OCc1cnc2[nH]ccc2c1` [Compound 30, 4-[7-Methoxy-3-methyl-8-(1H-pyrrolo[2,3-b]pyridin-5-ylmethoxy)-3H-pyrazolo-[3,4-c]quinolin-1-yl]-benzonitrile] registered an IC50 of 100 to 500 nM.

`COc1cc2ncc3c(c(-c4ccc(C#N)cc4)nn3C)c2cc1OCc1ccc(-n2cncn2)cc1` [Compound 31, 4-[7-Methoxy-3-methyl-8-(4-1,2,4-triazol-1-ylbenzyloxy)-3H-pyrazolo[3,4-c]quinolin-1-yl]benzonitrile]: the IC50 was above 500 nM.

Molecule `COc1cc2ncc3c(c(-c4ccc(C#N)cc4)nn3C)c2cc1OCc1cccc(CN)c1` [Compound 32, 4-[8-(3-Aminomethyl-benzyloxy)-7-methoxy-3-methyl-3H-pyrazolo[3,4-c]-quinolin-1-yl]benzonitrile hydrochloride] gave an IC50 of 100 to 500 nM.

For `COc1cc2ncc3c(c(-c4ccc(C#N)cc4)nn3C)c2cc1OCc1ccnc(N)c1` [Compound 33, 4-[8-(2-Aminopyridin-4-ylmethoxy)-7-methoxy-3-methyl-3H-pyrazolo[3,4-c]-quinolin-1-yl]benzonitrile], the IC50 is below 100 nM.

Molecule `COc1cc2ncc3c(c(-c4ccc(C#N)cc4)nn3C)c2cc1OCc1cccs1` [Compound 34, 4-[7-Methoxy-3-methyl-8-(thiophen-2-ylmethoxy)-3H-pyrazolo[3,4-c]quinolin-1-yl]-benzonitrile] yielded an IC50 below 100 nM.

Take `COc1cc2ncc3c(c(-c4ccc(C#N)cc4)nn3C)c2cc1OCc1ccsc1` [Compound 35, 4-[7-Methoxy-3-methyl-8-(thiophen-3-ylmethoxy)-3H-pyrazolo[3,4-c]quinolin-1-yl]-benzonitrile]: the IC50 is below 100 nM.

Turning to `COc1cc2ncc3c(c(-c4ccc(C#N)cc4)nn3C)c2cc1OCc1cc(Br)cs1` [Compound 36, 4-[8-(4-Bromothiophen-2-ylmethoxy)-7-methoxy-3-methyl-3H-pyrazolo[3,4-c]-quinolin-1-yl]benzonitrile], the IC50 is below 100 nM.

Turning to `COc1cc2ncc3c(c(-c4ccc(C#N)cc4)nn3C)c2cc1OCc1cc2ccccc2s1` [Compound 37, 4-[8-(Benzo[b]thiophen-2-ylmethoxy)-7-methoxy-3-methyl-3H-pyrazolo[3,4-c]-quinolin-1-yl]benzonitrile], the half-maximal inhibitory concentration (IC50) is above 500 nM.

The molecule `COc1cc2ncc3c(c(-c4ccc(C#N)cc4)nn3C)c2cc1OCc1ccnc(C#N)c1` [Compound 38, 4-[1-(4-Cyanophenyl)-7-methoxy-3-methyl-3H-pyrazolo[3,4-c]quinolin-8-yl-oxymethyl]pyridine-2-nitrile] displayed an IC50 of 100 to 500 nM.

Molecule `COc1cc2ncc3c(c(-c4ccc(C#N)cc4)nn3C)c2cc1OCc1nccs1` [Compound 39, 4-[7-Methoxy-3-methyl-8-(thiazol-2-ylmethoxy)-3H-pyrazolo[3,4-c]quinolin-1-yl]-benzonitrile] showed an IC50 below 100 nM.

`COc1cc2ncc3c(c(-c4ccc(C#N)cc4)nn3C)c2cc1OCc1cccc(N(C)C)c1` [Compound 41, 4-[8-(3-Dimethylamino-benzyloxy)-7-methoxy-3-methyl-3H-pyrazolo[3,4-c]-quinolin-1-yl]benzonitrile] registered an IC50 of 100 to 500 nM.

The molecule `COc1cc2ncc3c(c(-c4ccc(C#N)cc4)nn3C)c2cc1OCc1cscn1` [Compound 42, 4-[7-Methoxy-3-methyl-8-(thiazol-4-ylmethoxy)-3H-pyrazolo[3,4-c]quinolin-1-yl]-benzonitrile] showed an IC50 below 100 nM.

As for `COc1cc2ncc3c(c(-c4ccc(C#N)cc4)nn3C)c2cc1OCc1cncs1` [Compound 43, 4-[7-Methoxy-3-methyl-8-(thiazol-5-ylmethoxy)-3H-pyrazolo[3,4-c]quinolin-1-yl]-benzonitrile], the IC50 was below 100 nM.

For `COc1cc2ncc3c(c(-c4ccc(C#N)cc4)nn3C)c2cc1OCc1cccc(CN2CCN(C)CC2)c1` [Compound 44, 4-{7-Methoxy-3-methyl-8-[3-(4-methylpiperazin-1-yl-methyl)benzyloxy]-3H-pyrazolo[3,4-c]quinolin-1-yl}-benzonitrile], the IC50 was above 500 nM.

For `COc1cc2ncc3c(c(-c4ccc(C#N)cc4)nn3C)c2cc1OCc1cccc(-c2csc(C)n2)c1` [Compound 45, 4-{7-Methoxy-3-methyl-8-[3-(2-methylthiazol-4-yl)-benzyloxy]-3H-pyrazolo-[3,4-c]quinolin-1-yl}-benzonitrile], the IC50 lay in the range of 100 to 500 nM.

Regarding `COc1cc2c(cc1OCCN(C)C)ncc1c2c(-c2ccc(C#N)cc2)nn1C` [Compound 46, 4-[7-(2-Dimethylamino-ethoxy)-8-methoxy-3-methyl-3H-pyrazolo[3,4-c]quinolin-1-yl]benzonitrile], the IC50 was above 500 nM.

Regarding `COc1cc2c(cc1OCC(O)CO)ncc1c2c(-c2ccc(C#N)cc2)nn1C` (centres unmarked) [Compound 47, 4-[7-(2,3-Dihydroxypropoxy)-8-methoxy-3-methyl-3H - pyrazolo[3,4-c]quinolin-1-yl]-benzonitrile], the IC50 is above 500 nM.

Consider `COc1cc2ncc3c(c(-c4ccc(C#N)cc4)nn3C)c2cc1OC(C(=O)NCCN(C)C)c1ccc(F)cc1` (centres unmarked) [Compound 49, 2-[1-(4-Cyano-phenyl)-7-methoxy-3-methyl-3H-pyrazolo-[3,4-c]quinolin-8-yl-oxy]-N-(2-dimethyl-aminoethyl)-2-(4-fluorophenyl)-acetamide], for which the IC50 lay within 100 to 500 nM.

Take `COc1cc2ncc3c(c(-c4ccc(C#N)cc4)nn3C)c2cc1OC(C(=O)NCCN1CCNCC1)c1ccc(F)cc1` (centres unmarked) [Compound 50, 2-[1-(4-Cyano-phenyl)-7-methoxy-3-methyl-3H-pyrazolo-[3,4-c]quinolin-8-yl-oxy]-2-(4-fluoro-phenyl)-N-(2 - piperazin-1-ylethyl)-acetamide]: the IC50 was above 500 nM.

The molecule `COc1cc2ncc3c(c(-c4ccc(C#N)cc4)nn3C)c2cc1OC(C(=O)NOCC#N)c1ccc(F)cc1` (centres unmarked) [Compound 51, N-Cyanomethoxy-2-[1-(4-cyanophenyl)-7-methoxy-3-methyl-3H-pyrazolo[3,4-c]-quinolin-8-yloxy]-2-(4-fluorophenyl)-acetamide] returned an IC50 of 100 to 500 nM.

Take `COc1cc2ncc3c(c(-c4ccc(C#N)cc4)nn3C)c2cc1OC(C(=O)NCCS(N)(=O)=O)c1ccc(F)cc1` (centres unmarked) [Compound 52, 2-[1-(4-Cyano-phenyl)-7-methoxy-3-methyl-3H-pyrazolo-[3,4-c]quinolin-8-yl-oxy]-2-(4-fluoro-phenyl)-N-(2-sulfamoylethyl)-acetamide]: the IC50 lay in the range of 100 to 500 nM.

The molecule `COc1cc2ncc3c(c(-c4ccc(C#N)cc4)nn3C)c2cc1OC(C(=O)NO)c1ccc(F)cc1` (centres unmarked) [Compound 53, 2-[1-(4-Cyano-phenyl)-7-methoxy-3-methyl-3H-pyrazolo-[3,4-c]quinolin-8-yloxy]-2-(4-fluoro-phenyl)-N-hydroxy-acetamide] gave an IC50 below 100 nM.

For the molecule `COc1cc2ncc3c(c(-c4ccc(C#N)cc4)nn3C)c2cc1OC(C(=O)NC(=N)N)c1ccc(F)cc1` (centres unmarked) [Compound 54, N-[2-[1-(4-Cyano-phenyl)-7-methoxy-3-methyl-3H-pyrazolo-[3,4-c]quinolin-8-yl-oxy]-2-(4-fluoro-phenyl)acetyl]-guanidine], the IC50 is below 100 nM.

With `COCCNC(=O)C(Oc1cc2c(cc1OC)ncc1c2c(-c2ccc(C#N)cc2)nn1C)c1ccc(F)cc1` (centres unmarked) [Compound 55, 2-[1-(4-Cyano-phenyl)-7-methoxy-3-methyl-3H-pyrazolo-[3,4-c]quinolin-8-yloxy]-2-(4-fluoro-phenyl)-N-(2-methoxyethyl)-acetamide], the IC50 was below 100 nM.

Molecule `CCn1nc(-c2ccc(C#N)cc2F)c2c3cc(OC)c(OC)cc3ncc21` [Compound 57, 4-(3-Ethyl-7,8-dimethoxy-3H-pyrazolo[3,4-c]quinolin-1-yl)-3-fluorobenzonitrile] registered an IC50 of 100 to 500 nM.

For the molecule `CCCCn1nc(-c2ccc(C#N)cc2)c2c3cc(OC)c(OC)cc3ncc21` [Compound 58, 4-(3-Butyl-7,8-dimethoxy-3H-pyrazolo[3,4-c]quinolin-1-yl)-benzonitrile], the half-maximal inhibitory concentration (IC50) was above 500 nM.

Take `CCCn1nc(-c2ccc(C#N)cc2)c2c3cc(OC)c(OC)cc3ncc21` [Compound 59, 4-(7,8-Dimethoxy-3-propyl-3H-pyrazolo[3,4-c]quinolin-1-yl)-benzonitrile]: the IC50 was 100 to 500 nM.

The molecule `COc1cc2ncc3c(c(-c4ccc(C#N)cc4)nn3C(C)C)c2cc1OC` [Compound 60, 4-(3-Isopropyl-7,8-dimethoxy-3H-pyrazolo[3,4-c]quinolin-1-yl)benzonitrile] yielded an IC50 of 100 to 500 nM.

In turn, `COc1cc2ncc3c(c(-c4ccc(C#N)cc4)nn3CC(C)C)c2cc1OC` [Compound 61, 4-(3-lsobutyl-7,8-dimethoxy-3H-pyrazolo[3,4-c]quinolin-1-yl)benzonitrile] gave an IC50 above 500 nM.

The molecule `COc1cc2ncc3c(c(-c4ccc(C#N)cc4)nn3C3CC3)c2cc1OC` [Compound 62, 4-(3-Cyclopropyl-7,8-dimethoxy-3H-pyrazolo[3,4-c]-quinolin-1-yl)benzonitrile] had an IC50 of 100 to 500 nM.

In turn, `C=CCn1nc(-c2ccc(C#N)cc2)c2c3cc(OC)c(OC)cc3ncc21` [Compound 63, 4-(3-Allyl-7,8-dimethoxy-3H-pyrazolo[3,4-c]quinolin-1-yl)-benzonitrile] showed an IC50 of 100 to 500 nM.

Turning to `COc1cc2ncc3c(c(-c4ccc(C#N)cc4F)nn3Cc3cccnc3)c2cc1OC` [Compound 64, 4-(7,8-Dimethoxy-3-pyridin-3-ylmethyl-3H-pyrazolo[3,4-c]-quinolin-1-yl)-3-fluoro-benzonitrile], the IC50 is above 500 nM.
